The source of these data is patent US20110039763A1, “TARGETED ANTIMICROBIAL MOIETIES” (C3 JIAN, INC., priority 2009, published 2011).

“Also recorded” adds a separate entry of the source.

Assay [1] has as its system microorganisms. The assay is described as follows: Peptide activities: targeting/binding, antimicrobial, growth or phenotype altering (Tables 7, 8). The conditions noted are these: peptides having multiple activities. It counts as cell-based.
Assay [2] has as its system microorganisms. As to the kind of experiment: Targeting peptide binding to target microorganisms (Tables 3, 10, 12). The conditions noted are these: microorganism(s) the targeting peptide binds; binding in aqueous buffers varied with peptide solubility, preferably 1x PBS.
Assay [3] has as its system microorganisms. As to the kind of experiment: Morphology, biofilm and growth disrupting peptides (Table 5). It counts as cell-based. The arrangement: key: A: Peptide aggregates; B: Less hyphal formation; Clumps; Diffuse clumps and small polyps; F: Diffuse growth; H: Thin; I: Growth inhibition; Microcolony formation; Rippled; Small polyps; Thick; W: Halo formation on top, microlonies on bottom. The source says:
In certain embodiments peptides that induce alterations in phenotype or other biological activities can also be used as antimicrobial effector moieties.

For the substance “PF-573: peptide having multiple activities (EKKLIVKLIDSIGKSHEEIVGAG; Peptide with targeting and/or antimicrobial activity)”, in the assay with microorganisms [1], the Activities entry is reported as “G B”. For the same substance, the “Target(s)” value in the assay with microorganisms [2] is recorded as “S. epidermidis; also recorded: S. pneumoniae”. The “Organism, effect” value in the assay with microorganisms [3] (S. pneumoniae) is “S. pneumoniae (C)”.
As for “PF-576: peptide having multiple activities (AYSGELPEPLVRKMSKEQVRSVMGK; Peptide with targeting and/or antimicrobial activity)”, in the assay on microorganisms [1], the Activities entry is on record as “G B”. In addition, in the assay on microorganisms [2], the “Target(s)” value is given as “M. luteus; also recorded: P. mirabilis; also recorded: E. coli; also recorded: P. aeruginosa; also recorded: C. albicans; also recorded: S. pneumoniae”. The “Organism, effect” value in the assay with microorganisms [3] (C. jejuni) was “C. jejuni (C)”; in the assay on microorganisms [3] (E. coli), “E. coli (A)”; in the assay with microorganisms [3] (MRSA), “MRSA (R)”; in the assay with microorganisms [3] (S. epidermidis), “S. epidermidis (A)”; in the assay on microorganisms [3] (S. pneumoniae) it was “S. pneumoniae (C)”.
In the case of “PF-584: peptide having multiple activities (chain 1 SYIKNLSNQKFLIAF; chain 2 SYIKNLSNQKFLIAF; Peptide with targeting and/or antimicrobial activity)”, the Activities entry with microorganisms [1] is listed as “G B”. In the assay with microorganisms [2], the “Target(s)” value was “S. epidermidis and M. luteus and P. mirabilis and C. albicans and MRSA and S. pneumoniae and E. faecalis and C. jeikeium”. The “Organism, effect” value in the assay with microorganisms [3] (C. jejuni) is reported as “C. jejuni (D)”; with microorganisms [3] (E. coli), “E. coli (C)”; in the assay with microorganisms [3] (E. faecalis) it was “E. faecalis (D)”; in the assay on microorganisms [3] (MRSA), “MRSA (D)”; in the assay with microorganisms [3] (S. epidermidis) it was “S. epidermidis (C)”; in the assay with microorganisms [3] (S. pneumoniae), “S. pneumoniae (D)”.
Consider “PF-585: peptide having multiple activities (chain 1 DYNHLLNVVQDWVNTN; chain 2 DYNHLLNVVQDWVNTN; Peptide with targeting and/or antimicrobial activity)”, for which the Activities result with microorganisms [1] is “G B”. The “Target(s)” value in the assay on microorganisms [2] is “S. epidermidis and E. coli and C. albicans and MRSA and S. pneumoniae and C. jeikeium”. Further, the “Organism, effect” value is on record as “C. jejuni (R)” in the assay with microorganisms [3] (C. jejuni); “E. faecalis (A)” with microorganisms [3] (E. faecalis); “MRSA (S)” in the assay on microorganisms [3] (MRSA); “S. epidermidis (S)” in the assay with microorganisms [3] (S. epidermidis); “S. pneumoniae (R)” with microorganisms [3] (S. pneumoniae).
As to “PF-588: peptide having multiple activities (chain 1 ESVEAIKAKAIK; chain 2 ESVEAIKAKAIK; Peptide with targeting and/or antimicrobial activity)”, in the assay with microorganisms [1], the Activities entry is “G B”. Besides, the “Target(s)” value with microorganisms [2] was “S. epidermidis; also recorded: E. coli; also recorded: C. albicans; also recorded: E. faecalis; also recorded: C. jeikeium; also recorded: C. jejuni”. For the same substance, the “Organism, effect” value with microorganisms [3] (E. faecalis) is “E. faecalis (A)”.
Regarding “PF-590: peptide having multiple activities (chain 1 YYQAKLFPLL; chain 2 YYQAKLFPLL; Peptide with targeting and/or antimicrobial activity)”, in the assay with microorganisms [1], the Activities result was “G B”. For the same substance, the “Target(s)” value with microorganisms [2] is “S. epidermidis; also recorded: M. luteus; also recorded: E. coli; also recorded: E. faecalis; also recorded: C. jeikeium”. In addition, the “Organism, effect” value in the assay with microorganisms [3] (C. jejuni) is on record as “C. jejuni (R)”.
“PF-593: peptide having multiple activities (chain 1 MEISTLKKEKLHVKDELSQYLANYKK; chain 2 MEISTLKKEKLHVKDELSQYLANYKK; Peptide with targeting and/or antimicrobial activity)”: in the assay on microorganisms [1], the Activities entry is on record as “G B”. For the same substance, the “Target(s)” value in the assay with microorganisms [2] was “C. jeikeium”. The “Organism, effect” value in the assay with microorganisms [3] (E. faecalis) is “E. faecalis (A)”.
On the same counts, the results for “PF-594: peptide having multiple activities (chain 1 IVSAIV; chain 2 IVSAIV; Peptide with targeting and/or antimicrobial activity)” are “G B”, “C. jeikeium” and “E. faecalis (C)”.
Take “PF-598: peptide having multiple activities (chain 1 MKFMLEVRNKAISAYKEITRTQI; chain 2 MKFMLEVRNKAISAYKEITRTQI; Peptide with targeting and/or antimicrobial activity)”: the Activities result with microorganisms [1] is reported as “G B”. For the same substance, the “Target(s)” value in the assay with microorganisms [2] was “S. epidermidis and M. luteus and P. mirabilis and P. aeruginosa and C. albicans and MRSA and S. pneumoniae and C. jeikeium”. Besides, the “Organism, effect” value is reported as “C. jejuni (R)” with microorganisms [3] (C. jejuni); “E. coli (C)” with microorganisms [3] (E. coli); “E. faecalis (R)” in the assay with microorganisms [3] (E. faecalis); “MRSA (D)” in the assay with microorganisms [3] (MRSA); “S. epidermidis (R)” in the assay on microorganisms [3] (S. epidermidis); “S. pneumoniae (R)” in the assay on microorganisms [3] (S. pneumoniae).
Consider “PF-599: peptide having multiple activities (chain 1 LFEIFKPKH; chain 2 LFEIFKPKH; Peptide with targeting and/or antimicrobial activity)”, for which the Activities result with microorganisms [1] is reported as “G B”. Moreover, the “Target(s)” value in the assay on microorganisms [2] was “S. epidermidis and P. mirabilis and E. coli and C. albicans and MRSA and S. pneumoniae and C. jeikeium”. In addition, the “Organism, effect” value in the assay on microorganisms [3] (C. jejuni) was “C. jejuni (R)”; in the assay with microorganisms [3] (E. faecalis), “E. faecalis (A)”; in the assay with microorganisms [3] (MRSA) it was “MRSA (C)”; in the assay with microorganisms [3] (S. epidermidis), “S. epidermidis (M)”; with microorganisms [3] (S. pneumoniae), “S. pneumoniae (R)”.
As for “PF-601: peptide having multiple activities (chain 1 YRVTVKALE; chain 2 YRVTVKALE; Peptide with targeting and/or antimicrobial activity)”, the Activities result with microorganisms [1] was “G B”. Further, the “Target(s)” value with microorganisms [2] is recorded as “C. jeikeium”. Also, the “Organism, effect” value is listed as “C. jejuni (A)” in the assay with microorganisms [3] (C. jejuni) and “E. faecalis (A)” in the assay on microorganisms [3] (E. faecalis).
On to “PF-602: peptide having multiple activities (chain 1 LEKEKKEYIEKLFKTK; chain 2 LEKEKKEYIEKLFKTK; Peptide with targeting and/or antimicrobial activity)”, for which the Activities entry with microorganisms [1] is “G B”. Moreover, the “Target(s)” value in the assay with microorganisms [2] is given as “P. mirabilis; also recorded: C. jeikeium”. In addition, the “Organism, effect” value with microorganisms [3] (E. faecalis) was “E. faecalis (A)”.
For the substance “PF-604: peptide having multiple activities (chain 1 LMEQVEV; chain 2 LMEQVEV; Peptide with targeting and/or antimicrobial activity)”, the Activities result in the assay with microorganisms [1] was “G B”. Besides, the “Target(s)” value in the assay with microorganisms [2] was “S. epidermidis; also recorded: C. albicans; also recorded: C. jeikeium”. Also, the “Organism, effect” value with microorganisms [3] (E. faecalis) is “E. faecalis (A)”.
For “PF-607: peptide having multiple activities (chain 1 YIESDPRKFDYIFGAIRDH; chain 2 YIESDPRKFDYIFGAIRDH; Peptide with targeting and/or antimicrobial activity)”, the Activities result with microorganisms [1] is on record as “G B”. Besides, the “Target(s)” value in the assay on microorganisms [2] is “S. epidermidis and P. mirabilis and E. coli and MRSA and S. pneumoniae and C. jeikeium”. The “Organism, effect” value in the assay on microorganisms [3] (C. jejuni) is reported as “C. jejuni (R)”; in the assay with microorganisms [3] (E. faecalis) it was “E. faecalis (A)”; in the assay on microorganisms [3] (MRSA), “MRSA (S)”; with microorganisms [3] (S. epidermidis), “S. epidermidis (M)”; with microorganisms [3] (S. pneumoniae) it was “S. pneumoniae (R)”.
For “PF-609: peptide having multiple activities (chain 1 TEIKLDNNEYLVLNLDDILGILK; chain 2 TEIKLDNNEYLVLNLDDILGILK; Peptide with targeting and/or antimicrobial activity)”, the Activities entry in the assay with microorganisms [1] is “G B”. Moreover, the “Target(s)” value in the assay on microorganisms [2] is “P. mirabilis; also recorded: E. coli; also recorded: S. pneumoniae”. Further, the “Organism, effect” value with microorganisms [3] (C. jejuni) is “C. jejuni (R)”; in the assay on microorganisms [3] (E. faecalis), “E. faecalis (A)”; with microorganisms [3] (MRSA), “MRSA (C)”; in the assay on microorganisms [3] (S. pneumoniae), “S. pneumoniae (R)”.
Take “PF-613: peptide having multiple activities (chain 1 ADEFAKL; chain 2 ADEFAKL; Peptide with targeting and/or antimicrobial activity)”: the Activities entry with microorganisms [1] is listed as “G B”. The “Target(s)” value in the assay with microorganisms [2] is recorded as “C. jeikeium”. The “Organism, effect” value in the assay with microorganisms [3] (E. faecalis) is “E. faecalis (A)”; in the assay on microorganisms [3] (MRSA) it was “MRSA (C)”; with microorganisms [3] (S. epidermidis), “S. epidermidis (R)”.
For “PF-614: peptide having multiple activities (chain 1 GLDIYA; chain 2 GLDIYA; Peptide with targeting and/or antimicrobial activity)”, in the assay on microorganisms [1], the Activities result is given as “G B”. Moreover, the “Target(s)” value with microorganisms [2] is “S. epidermidis; also recorded: E. coli; also recorded: C. jeikeium”. For the same substance, the “Organism, effect” value is “C. jejuni (R)” in the assay with microorganisms [3] (C. jejuni), “E. faecalis (A)” in the assay with microorganisms [3] (E. faecalis), “S. epidermidis (M)” with microorganisms [3] (S. epidermidis) and “S. pneumoniae (R)” in the assay with microorganisms [3] (S. pneumoniae).
Turning to “PF-616: peptide having multiple activities (chain 1 IVFVVTKEKK; chain 2 IVFVVTKEKK; Peptide with targeting and/or antimicrobial activity)”, the Activities entry in the assay with microorganisms [1] is reported as “G B”. In the assay on microorganisms [2], the “Target(s)” value is recorded as “C. jeikeium”. Besides, the “Organism, effect” value in the assay on microorganisms [3] (E. faecalis) is “E. faecalis (A)”; in the assay with microorganisms [3] (S. epidermidis) it was “S. epidermidis (R)”.
